According to PubChem BioAssay (NCI):
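Assay format: 96-well plates, 48-hour exposure. Definition used: TGI = concentration required for complete inhibition of growth.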

Columns and labels:
Assay in all cases: NCI tumour cell line growth inhibition, 48 h
[1] = system: 786-0 renal
[2] = system: A498 renal
[3] = system: CCRF-CEM leukemia
[4] = system: COLO 205 colon
[5] = system: EKVX NSCLC
[6] = system: HCC-2998 colon
[7] = system: HL-60(TB) leukemia
[8] = system: HOP-92 NSCLC
[9] = system: IGROV1 ovarian
[10] = system: M14 melanoma
[11] = system: NCI-H226 lung
[12] = system: NCI-H23 lung
[13] = system: OVCAR-3 ovarian
[14] = system: OVCAR-8 ovarian
[15] = system: SF-295 CNS
[16] = system: SN12C renal
[17] = system: SNB-19 CNS
[18] = system: SNB-75 CNS
[19] = system: U251 CNS
[20] = system: UACC-62 melanoma

Row | SMILES | TGI [1] [µM] | TGI [2] [µM] | TGI [3] [µM] | TGI [4] [µM] | TGI [5] [µM] | TGI [6] [µM] | TGI [7] [µM] | TGI [8] [µM] | TGI [9] [µM] | TGI [10] [µM] | TGI [11] [µM] | TGI [12] [µM] | TGI [13] [µM] | TGI [14] [µM] | TGI [15] [µM] | TGI [16] [µM] | TGI [17] [µM] | TGI [18] [µM] | TGI [19] [µM] | TGI [20] [µM]
1 | CCO[C@H]1O[C@@H]2OC3(C)CCC4[C@H](C)CCC([C@H]1C)[C@]42OO3 (some centres undefined) | > 100 | > 100 | > 100 | 25.5 | > 100 | > 100 | 13.2 | > 100 | > 100 | > 100 | > 100 | > 100 | 99.8 | 51.7 | > 100 | > 100 | > 100 | > 100 | > 100 | > 100
2 | CC1SC2=NC3=C(c4ccccc4C3=O)C(c3ccccc3Cl)N2C1=O (centres undefined) | > 100 | > 100 | > 100 | > 100 | > 100 | > 100 | > 100 | > 100 | > 100 | > 100 | > 100 | > 100 | > 100 | > 100 | > 100 | > 100 | > 100 | > 100 | > 100 | > 100
3 | CC12C3CC4C5CC(C(C53)[C@@H]1NCc1ccccc1)C42 (some centres undefined) | > 100 | > 100 | > 100 | 75.3 | > 100 | 41.8 | > 100 | > 100 | > 100 | > 100 | > 100 | > 100 | > 100 | > 100 | > 100 | > 100 | > 100 | > 100 | > 100 | > 100
4 | CSc1ccc2c(cc1=O)C(NC(=O)c1ccccc1)CCc1cc(O)c(O)c(O)c1-2 (centres undefined) | > 100 | 56.9 | > 100 | 73.4 | > 100 | 36.2 | 38.2 | 38.5 | 66.1 | 35.7 | 45.7 | 24.7 | 5.91 | > 100 | > 100 | 44.7 | 27.1 | 8.42 | 26.2 | 25.7
5 | COC(=O)c1sc2c(=O)c(C(=O)OC)c(C(=O)OC)sc2c(=O)c1C(=O)OC | > 100 | > 100 | > 100 | > 100 | > 100 | > 100 | > 100 | > 100 | > 100 | > 100 | > 100 | > 100 | > 100 | > 100 | > 100 | > 100 | > 100 | > 100 | > 100 | > 100
6 | Cc1cccc2c(NCCN(C)C)c3cccc(C(=O)NCCN(C)C)c3nc12 | 3.38 | 4.06 | 0.813 | 1.61 | 4.29 | 1.33 | 0.637 | 1.46 | 6.64 | 2.44 | 5.68 | 1.3 | 5.54 | 10.2 | 3.77 | 1.69 | 11.2 | 0.953 | 3.82 | 0.311
7 | O=C(O)c1ccccc1/C=C1/Cc2ccc3c(c2C1=O)CCC3 | > 100 | > 100 | > 100 | 36.3 | > 100 | 72.1 | 48 | 80.8 | > 100 | > 100 | 90.8 | 96 | 95.2 | > 100 | > 100 | > 100 | > 100 | > 100 | > 100 | > 100
8 | O=S1(=O)c2ccccc2N2C(c3ccccc3)=NOC2(c2ccccc2)CC1c1ccc(Br)cc1 (centres undefined) | > 100 | > 100 | > 100 | > 100 | > 100 | > 100 | > 100 | > 100 | > 100 | > 100 | > 100 | > 100 | > 100 | > 100 | > 100 | > 100 | > 100 | > 100 | > 100 | > 100
9 | CCCCCCCC(=O)OCC1OC(n2cc(F)c(=O)[nH]c2=O)C(N)C(O)C1O (centres undefined) | > 100 | > 100 | > 100 | > 100 | > 100 | > 100 | > 100 | > 100 | > 100 | > 100 | > 100 | > 100 | > 100 | > 100 | > 100 | > 100 | > 100 | > 100 | > 100 | > 100
10 | CN(/N=C/c1ccc(Cl)c(Cl)c1)C1=NCCCCN1 | 47.8 | 49.2 | 83.5 | 37.2 | > 100 | 63.9 | 65.5 | 49.6 | > 100 | 29.9 | 39.2 | > 100 | > 100 | > 100 | > 100 | > 100 | > 100 | > 100 | > 100 | 52.8
11 | O=C1/C(=C/c2ccccc2)CCc2ccc([N+](=O)[O-])cc21 | > 80.3 | > 100 | > 100 | > 100 | > 100 | > 100 | > 100 | > 100 | > 100 | > 96.4 | > 100 | > 100 | > 100 | > 100 | > 100 | > 100 | 91.3 | > 74.6 | > 100 | > 100
12 | O=C(c1ccccc1)N(CCCCNC(=O)C(F)(F)F)CCCNC(=O)C(F)(F)F | > 100 | > 100 | > 100 | > 100 | > 100 | > 100 | > 100 | > 100 | > 100 | > 100 | > 100 | > 100 |  | > 100 | > 100 | > 100 | > 100 | > 100 | > 100 | > 100
